Experimental data: ChEMBL document CHEMBL4011581, “Interference with bile salt export pump function is a susceptibility factor for human liver injury in drug development” (Toxicol Sci, 2010)

Biological target: Bile salt export pump (Homo sapiens, UniProt O95342)
Assay: Inhibition of human BSEP expressed in fall armyworm sf9 cell plasma membrane vesicles assessed as reduction in vesicle-associated [3H]-taurocholate transport preincubated for 10 mins prior to ATP addition measured after 15 mins in presence of [3H]-taurocholate by topcount based membrane vesicle transport assay
Assay type: ADME

| SMILES | IC50 [µM] |
| --- | --- |
| CCCc1nc2c(C)cc(-c3nc4ccccc4n3C)cc2n1Cc1ccc(-c2ccccc2C(=O)O)cc1 | 16.2 |
| CC(C)CN(C[C@@H](O)[C@H](Cc1ccccc1)NC(=O)O[C@H]1CCOC1)S(=O)(=O)c1ccc(N)cc1 | 25 to 45 |
| CNS(=O)(=O)Cc1ccc2[nH]cc(CCN(C)C)c2c1 | > 135 |
| CC1=C(CC(=O)O)c2cc(F)ccc2/C1=C\c1ccc([S+](C)[O-])cc1 (stereo not given) | > 135 |
| O=C(O)c1ccccc1-c1c2ccc(=O)cc-2oc2cc(O)ccc12 | > 135 |
| COc1ccccc1N1CCN(CCCNc2cc(=O)n(C)c(=O)n2C)CC1 | > 135 |
| CC(=O)[C@H]1[C@H](C#N)C[C@H]2[C@@H]3CC=C4CC(O)CC[C@]4(C)[C@H]3CC[C@@]21C (stereo not given in full) | > 135 |
| Cc1c(O)cccc1C(=O)N[C@@H](CSc1ccccc1)[C@H](O)CN1C[C@H]2CCCC[C@H]2C[C@H]1C(=O)NC(C)(C)C | 11.8 |
| Nc1nc(N)c2nc(-c3ccccc3)c(N)nc2n1 | > 135 |
| S=C=Nc1cccc2ccccc12 [1-NAPHTHYLISOTHIOCYANATE] | 60 to 75 |
| CCN(CC)CCNC(=O)c1ccc(NC(C)=O)cc1 [ACECAINIDE] | > 135 |
| CC(=O)Nc1ccc(O)cc1 [ACETAMINOPHEN] | > 135 |
| Nc1nc2c(ncn2COCCO)c(=O)[nH]1 [ACYCLOVIR] | > 135 |
| C=CCc1ccccc1OCC(O)CNC(C)C (stereo not given) [ALPRENOLOL] | > 135 |
| NCC[C@H](O)C(=O)N[C@@H]1C[C@H](N)[C@@H](O[C@H]2O[C@H](CN)[C@@H](O)[C@H](O)[C@H]2O)[C@H](O)[C@H]1O[C@H]1O[C@H](CO)[C@@H](O)[C@H](N)[C@H]1O [AMIKACIN] | > 135 |
| CN(C)CCC=C1c2ccccc2CCc2ccccc21 [AMITRIPTYLINE] | > 135 |
| CCCCCC[C@H]1C(=O)O[C@H](C)[C@H](NC(=O)c2cccc(NC=O)c2O)C(=O)O[C@@H](C)[C@@H]1OC(=O)CC(C)C [ANTIMYCIN A] | 45 to 60 |
| Cc1cc(=O)n(-c2ccccc2)n1C [ANTIPYRINE] | > 135 |
| CN1CCc2cccc3c2[C@H]1Cc1ccc(O)c(O)c1-3 [APOMORPHINE] | > 135 |
| CC(=O)Oc1ccccc1C(=O)O [ASPIRIN] | > 135 |
| CCc1oc2ccccc2c1C(=O)c1cc(Br)c(O)c(Br)c1 [BENZBROMARONE] | 17.5 |
| C[C@H]1C[C@H]2[C@@H]3CCC4=CC(=O)C=C[C@]4(C)[C@@]3(F)[C@@H](O)C[C@]2(C)[C@@]1(O)C(=O)CO [BETAMETHASONE] | > 135 |

| SMILES | IC50 [µM] |
| --- | --- |
| O=C(O)CCNC(=O)c1ccccc1 [BETAMIPRON] | > 135 |
| COc1ccccc1Oc1c(NS(=O)(=O)c2ccc(C(C)(C)C)cc2)nc(-c2ncccn2)nc1OCCO [BOSENTAN] | 22 |
| CCCCNc1cc(C(=O)O)cc(S(N)(=O)=O)c1Oc1ccccc1 [BUMETANIDE] | > 135 |
| CS(=O)(=O)OCCCCOS(C)(=O)=O [BUSULFAN] | > 135 |
| Oc1ccc2c(c1)[C@@]13CCCC[C@@]1(O)[C@@H](C2)N(CC1CCC1)CC3 [BUTORPHANOL] | > 135 |
| CC[C@@]1(O)C(=O)OCc2c1cc1n(c2=O)Cc2cc3ccccc3nc2-1 [CAMPTOTHECIN] | > 135 |
| ClC(Cl)(Cl)Cl [CARBON TETRACHLORIDE] | > 135 |
| C=CC1=C(C(=O)O)N2C(=O)[C@@H](NC(=O)/C(=N\OCC(=O)O)c3csc(N)n3)[C@H]2SC1 [CEFIXIME] | > 135 |
| O=C(O)CCCc1ccc(N(CCCl)CCCl)cc1 [CHLORAMBUCIL] | > 135 |
| CNC1=Nc2ccc(Cl)cc2C(c2ccccc2)=[N+]([O-])C1 [CHLORDIAZEPOXIDE] | 25 to 45 |
| CN(C)CCC(c1ccc(Cl)cc1)c1ccccn1 (stereo not given) [CHLORPHENIRAMINE] | > 135 |
| CN(C)CCCN1c2ccccc2Sc2ccc(Cl)cc21 [CHLORPROMAZINE] | > 135 |
| CCCNC(=O)NS(=O)(=O)c1ccc(Cl)cc1 [CHLORPROPAMIDE] | > 135 |
| CC1(COc2ccc(CC3SC(=O)NC3=O)cc2)CCCCC1 (stereo not given) [CIGLITAZONE] | 37.8 |
| C(=C\c1ccccc1)/CN1CCN(C(c2ccccc2)c2ccccc2)CC1 [CINNARIZINE] | 15.7 |
| CC(C)(Oc1ccc(C2CC2(Cl)Cl)cc1)C(=O)O (stereo not given) [CIPROFIBRATE] | > 135 |
| CC(C)/N=c1\cc2n(-c3ccc(Cl)cc3)c3ccccc3nc-2cc1Nc1ccc(Cl)cc1 [CLOFAZIMINE] | 12.9 |
| CCOC(=O)C(C)(C)Oc1ccc(Cl)cc1 [CLOFIBRATE] | 60 to 75 |
| C[C@@H]1CCC[C@H](C)N1NC(=O)c1ccc(Cl)c(S(N)(=O)=O)c1 [CLOPAMIDE] | > 135 |
| CN1CCN(C2=Nc3cc(Cl)ccc3Nc3ccccc32)CC1 [CLOZAPINE] | > 135 |
| O=P1(N(CCCl)CCCl)NCCCO1 (stereo not given) [CYCLOPHOSPHAMIDE ANHYDROUS] | > 135 |
| CNCCCN1c2ccccc2CCc2ccccc21 [DESIPRAMINE] | > 135 |

| SMILES | IC50 [µM] |
| --- | --- |
| C[C@@H]1C[C@H]2[C@@H]3CCC4=CC(=O)C=C[C@]4(C)[C@@]3(F)[C@@H](O)C[C@]2(C)[C@@]1(O)C(=O)CO [DEXAMETHASONE] | > 135 |
| CN1C(=O)CN=C(c2ccccc2)c2cc(Cl)ccc21 [DIAZEPAM] | > 135 |
| CC1=NS(=O)(=O)c2cc(Cl)ccc2N1 [DIAZOXIDE] | > 135 |
| Cc1onc(-c2c(Cl)cccc2Cl)c1C(=O)N[C@@H]1C(=O)N2[C@@H]1SC(C)(C)[C@@H]2C(=O)O [DICLOXACILLIN] | 45 to 60 |
| CC(C)N(CCC(C(N)=O)(c1ccccc1)c1ccccn1)C(C)C (stereo not given) [DISOPYRAMIDE] | > 135 |
| COc1cccc2c1C(=O)c1c(O)c3c(c(O)c1C2=O)C[C@@](O)(C(=O)CO)C[C@@H]3O[C@H]1C[C@H](N)[C@H](O)[C@H](C)O1 [DOXORUBICIN] | > 135 |
| CCOc1ccc(/C=C2\NCCc3cc(OCC)c(OCC)cc32)cc1OCC [DROTAVERINE] | 37 |
| CC[C@H]1CN2CCc3cc(OC)c(OC)cc3[C@@H]2C[C@@H]1C[C@H]1NCCc2cc(OC)c(OC)cc21 [EMETINE] | > 135 |
| CCCCc1ncc(/C=C(\Cc2cccs2)C(=O)O)n1Cc1ccc(C(=O)O)cc1 [EPROSARTAN] | > 135 |
| CCC(=O)O[C@H]1[C@H](O[C@@H]2[C@@H](C)[C@H](O[C@H]3C[C@@](C)(OC)[C@@H](O)[C@H](C)O3)[C@@H](C)C(=O)O[C@H](CC)[C@@](C)(O)[C@H](O)[C@@H](C)C(=O)[C@H](C)C[C@@]2(C)O)O[C@H](C)C[C@@H]1N(C)C [ERYTHROMYCIN ESTOLATE] | 13 |
| Cc1ccc(-c2ncc(Cl)cc2-c2ccc(S(C)(=O)=O)cc2)cn1 [ETORICOXIB] | 45 to 60 |
| NC(N)=Nc1nc(CSCCC(N)=NS(N)(=O)=O)cs1 [FAMOTIDINE] | > 135 |
| CC(C)OC(=O)C(C)(C)Oc1ccc(C(=O)c2ccc(Cl)cc2)cc1 [FENOFIBRATE] | 15.3 |
| CC(C)(C)NC(=O)[C@H]1CC[C@H]2[C@@H]3CC[C@H]4NC(=O)C=C[C@]4(C)[C@H]3CC[C@]12C [FINASTERIDE] | 28.2 |
| COc1ccc(Cl)cc1[C@]1(F)C(=O)Nc2cc(C(F)(F)F)ccc21 [FLINDOKALNER] | > 135 |
| CCOC(=O)c1ncn2c1CN(C)C(=O)c1cc(F)ccc1-2 [FLUMAZENIL] | > 135 |
| O=c1[nH]cc(F)c(=O)[nH]1 [FLUOROURACIL] | > 135 |
| CCOC(=O)Nc1ccc(NCc2ccc(F)cc2)nc1N [FLUPIRTINE] | 35.5 |
| NC[C@@H]1O[C@H](O[C@H]2[C@@H](O)[C@H](O[C@@H]3[C@@H](O)[C@H](N)C[C@H](N)[C@H]3O[C@H]3O[C@H](CN)[C@@H](O)[C@H](O)[C@H]3N)O[C@@H]2CO)[C@H](N)[C@@H](O)[C@@H]1O [FRAMYCETIN] | > 135 |
| CC(=O)O[C@H]1C[C@@]2(C)[C@@H](C[C@@H](O)[C@H]3[C@@]4(C)CC[C@@H](O)[C@@H](C)[C@@H]4CC[C@@]32C)/C1=C(\CCC=C(C)C)C(=O)O [FUSIDIC ACID] | 10.1 |
| COc1ccc2c3c1O[C@H]1C[C@@H](O)C=C[C@@]31CCN(C)C2 [GALANTAMINE] | > 135 |
| Nc1nc(O)c2ncn(COC(CO)CO)c2n1 [GANCICLOVIR] | > 135 |

| SMILES | IC50 [µM] |
| --- | --- |
| Cc1ccc(C)c(OCCCC(C)(C)C(=O)O)c1 [GEMFIBROZIL] | > 135 |
| CCC1=C(C)CN(C(=O)NCCc2ccc(S(=O)(=O)NC(=O)N[C@H]3CC[C@H](C)CC3)cc2)C1=O [GLIMEPIRIDE] | 15.7 |
| N=C(N)NC(=O)Cc1c(Cl)cccc1Cl [GUANFACINE] | > 135 |
| CC(C)Cc1ccc(C(C)C(=O)O)cc1 (stereo not given) [IBUPROFEN] | > 135 |
| c1ccc2c(c1)OCC(C1=NCCN1)O2 (stereo not given) [IDAZOXAN] | > 135 |
| Cc1ccc(NC(=O)c2ccc(CN3CCN(C)CC3)cc2)cc1Nc1nccc(-c2cccnc2)n1 [IMATINIB] | 25.1 |
| Nc1cc(-c2ccncc2)c[nH]c1=O [INAMRINONE] | > 135 |
| CC1Cc2ccccc2N1NC(=O)c1ccc(Cl)c(S(N)(=O)=O)c1 (stereo not given) [INDAPAMIDE] | > 135 |
| O=C(NC1CCN(CCc2c[nH]c3ccccc23)CC1)c1ccccc1 [INDORAMIN] | > 135 |
| CC(C)NNC(=O)c1ccncc1 [IPRONIAZID] | > 135 |
| NNC(=O)c1ccncc1 [ISONIAZID] | > 135 |
| CCC(C)n1ncn(-c2ccc(N3CCN(c4ccc(OCC5COC(Cn6cncn6)(c6ccc(Cl)cc6Cl)O5)cc4)CC3)cc2)c1=O (stereo not given) [ITRACONAZOLE] | 18 |
| NC[C@H]1O[C@H](O[C@H]2[C@H](O)[C@@H](O[C@H]3O[C@H](CO)[C@@H](O)[C@H](N)[C@H]3O)[C@H](N)C[C@@H]2N)[C@H](O)[C@@H](O)[C@@H]1O [KANAMYCIN] | > 135 |
| CNC1(c2ccccc2Cl)CCCCC1=O (stereo not given) [KETAMINE] | > 135 |
| O=C(c1ccc(F)cc1)C1CCN(CCn2c(=O)[nH]c3ccccc3c2=O)CC1 [KETANSERIN] | > 135 |
| Cc1c(OCC(F)(F)F)ccnc1C[S+]([O-])c1nc2ccccc2[nH]1 (stereo not given) [LANSOPRAZOLE] | > 135 |
| CS(=O)(=O)CCNCc1ccc(-c2ccc3ncnc(Nc4ccc(OCc5cccc(F)c5)c(Cl)c4)c3c2)o1 [LAPATINIB] | 6.5 |
| Cc1cccc(C)c1OCC(=O)N[C@@H](Cc1ccccc1)[C@@H](O)C[C@H](Cc1ccccc1)NC(=O)[C@H](C(C)C)N1CCCNC1=O [LOPINAVIR] | 17.3 |
| CN(Cc1cnc2nc(N)nc(N)c2n1)c1ccc(C(=O)N[C@@H](CCC(=O)O)C(=O)O)cc1 [METHOTREXATE] | > 135 |
